The record followed here is PubChem BioAssay (NCI).

Among the test systems are UO-31 renal; SN12C renal; IGROV1 ovarian; A498 renal; HCC-2998 colon; TK-10 renal; MALME-3M melanoma; OVCAR-4 ovarian; HCT-116 colon; CAKI-1 renal.
Holding throughout (test): growth of human tumour cells (NCI), 48 h

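Grown in 96-well plates, cells were treated for 48 hours with each compound at five concentrations. Insufficient inhibition: endpoint recorded as highest concentration tested. GI50 is the concentration that inhibits growth by half. At the TGI there is no net growth.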

As to `CC1(C)C2CCC13C(=O)C1OC3(C2)C2C(=O)c3c(O)ccc(O)c3C(=O)C12` (stereo unspecified), the GI50 with UO-31 renal is 40.5 µM; with SN12C renal, 16.3 µM; in the test on IGROV1 ovarian, 23.8 µM; in the test with A498 renal, 4.95 µM; in the test with HCC-2998 colon it was 42.9 µM; with TK-10 renal, 26.1 µM. The GI50 in the test with MALME-3M melanoma is 18.3 µM; with OVCAR-4 ovarian, more than 100 µM; in the test on HCT-116 colon, 34.9 µM; with CAKI-1 renal, 4.31 µM. Also, the TGI was more than 100 µM with UO-31 renal; 35.7 µM in the test on SN12C renal; more than 100 µM in the test on IGROV1 ovarian; 56.6 µM in the test with A498 renal; more than 100 µM in the test with HCC-2998 colon; 69 µM in the test with TK-10 renal. For the same compound, the TGI with MALME-3M melanoma was 50.6 µM; in the test with OVCAR-4 ovarian, more than 100 µM; in the test with HCT-116 colon it was more than 100 µM; with CAKI-1 renal, 18.1 µM.
In the case of `[N-]=[N+]=CC(=O)OCC(N)C(=O)O` (stereo unspecified), the GI50 in the test with UO-31 renal is 4.92 µM; with SN12C renal, 0.749 µM; with IGROV1 ovarian, 5.47 µM; in the test with A498 renal it was 57.6 µM; in the test with HCC-2998 colon it was 0.556 µM; in the test on TK-10 renal, 0.573 µM. The GI50 with MALME-3M melanoma is 6.56 µM; in the test on OVCAR-4 ovarian it was 4.29 µM; with HCT-116 colon, 0.448 µM; in the test on CAKI-1 renal it was 0.429 µM. Further, the TGI in the test on UO-31 renal, with SN12C renal, in the test on IGROV1 ovarian, in the test on A498 renal, with HCC-2998 colon and with TK-10 renal was more than 100 µM throughout. In addition, the TGI with MALME-3M melanoma, in the test with OVCAR-4 ovarian, in the test on HCT-116 colon and in the test with CAKI-1 renal was more than 100 µM throughout.
In the case of `CC12CC3CC(C)(C1)CC(N=[N+]=[N-])(C3)C2`, the TGI in the test with UO-31 renal, with SN12C renal, in the test with IGROV1 ovarian, in the test with A498 renal, in the test with HCC-2998 colon and in the test on TK-10 renal was more than 100 µM in each case. For the same compound, the TGI in the test on MALME-3M melanoma, in the test with OVCAR-4 ovarian, with HCT-116 colon and in the test on CAKI-1 renal was more than 100 µM each time.
On to `CCNc1nc(N2CC(=O)Nc3cc(OC)ccc32)c2ccccc2n1`, for which the TGI in the test with UO-31 renal was more than 100 µM; in the test on SN12C renal, more than 100 µM; in the test with IGROV1 ovarian it was 14.1 µM; with TK-10 renal, more than 100 µM; in the test on MALME-3M melanoma it was more than 100 µM; with OVCAR-4 ovarian, more than 100 µM. Also, the TGI with HCT-116 colon and in the test on CAKI-1 renal was more than 100 µM each time. Moreover, the GI50 with SN12C renal is 0.00137 µM; in the test on IGROV1 ovarian, 0.00184 µM; with A498 renal, 0.00151 µM; with HCC-2998 colon, 0.000614 µM; in the test with TK-10 renal, 0.0822 µM; in the test on MALME-3M melanoma, 7.57 µM. The GI50 was 0.000361 µM in the test with HCT-116 colon and 0.0022 µM in the test on CAKI-1 renal.
As to `Cc1ccc(S(=O)(=O)n2cc(C(=O)C(=O)Nc3ccncc3)c3ccccc32)cc1`, the GI50 in the test on UO-31 renal is 5.45 µM; in the test on SN12C renal, 4.79 µM; in the test with IGROV1 ovarian it was 5.74 µM; in the test on A498 renal, 4.11 µM; in the test on HCC-2998 colon, 4.25 µM; in the test on TK-10 renal, 16.8 µM. Also, the GI50 is 43 µM with MALME-3M melanoma, 4.22 µM in the test on OVCAR-4 ovarian, 0.465 µM in the test on HCT-116 colon and 1.82 µM in the test with CAKI-1 renal. Besides, the TGI was more than 100 µM with UO-31 renal; more than 100 µM with SN12C renal; more than 100 µM in the test on IGROV1 ovarian; 77.6 µM with A498 renal; more than 100 µM in the test on HCC-2998 colon; more than 100 µM in the test on TK-10 renal. For the same compound, the TGI in the test with MALME-3M melanoma was more than 100 µM; in the test on OVCAR-4 ovarian, more than 100 µM; in the test on HCT-116 colon, 23.1 µM; with CAKI-1 renal it was more than 100 µM.
With `CO[C@H](C(=O)N[C@@H](CCCCNC(=O)OCc1ccccc1)C(=O)OC(C)(C)C)[C@@H]1Cc2cc3cc(OC4CC(OC5CC(O)C(O)C(C)O5)C(O)C(C)O4)c(C)c(O)c3c(O)c2C(=O)[C@H]1OC1CC(OC2CC(OC3CC(C)(O)C(O)C(C)O3)C(O)C(C)O2)C(O)C(C)O1` (stereo partly specified), the GI50 with UO-31 renal is 1.57 µM; with SN12C renal, 0.463 µM; in the test with IGROV1 ovarian it was 0.449 µM; with A498 renal, 0.64 µM; with HCC-2998 colon, 0.885 µM; in the test on TK-10 renal it was 1.15 µM. The GI50 in the test on MALME-3M melanoma is 0.516 µM; with OVCAR-4 ovarian, 3 µM; in the test with HCT-116 colon, 0.397 µM; with CAKI-1 renal, 1.04 µM. The TGI was 8.18 µM in the test on UO-31 renal; 3.88 µM in the test on SN12C renal; more than 10 µM with IGROV1 ovarian; 2.03 µM in the test on A498 renal; 3.2 µM in the test on HCC-2998 colon; more than 10 µM in the test with TK-10 renal. Besides, the TGI with MALME-3M melanoma is 1.86 µM; with OVCAR-4 ovarian, more than 10 µM; in the test with HCT-116 colon, 1.63 µM; in the test on CAKI-1 renal, 3.42 µM.
As for `CCOC(=O)/C=C1\Nc2ccccc2-n2nnnc21`, the TGI in the test with UO-31 renal, in the test on SN12C renal, in the test with IGROV1 ovarian, with A498 renal, with HCC-2998 colon and in the test on TK-10 renal was more than 100 µM each time. For the same compound, the TGI in the test with MALME-3M melanoma, in the test with OVCAR-4 ovarian, with HCT-116 colon and in the test on CAKI-1 renal was more than 100 µM each time.
Turning to `COC(=O)Nc1nc2ccc(Oc3ccc(NC(=O)Nc4cccc(Cl)c4)cc3)cc2[nH]1`, the GI50 with UO-31 renal is 6.93 µM; in the test on SN12C renal it was 2.06 µM; in the test with IGROV1 ovarian, 2.86 µM; with A498 renal, 1.64 µM; with HCC-2998 colon, 7.98 µM; in the test on TK-10 renal, 4 µM. For the same compound, the GI50 was 0.564 µM with MALME-3M melanoma, 3.05 µM with OVCAR-4 ovarian, 1.09 µM in the test on HCT-116 colon and 1.74 µM with CAKI-1 renal. Besides, the TGI in the test with UO-31 renal is more than 21.4 µM; in the test with SN12C renal it was 11.7 µM; with IGROV1 ovarian it was 9.79 µM; in the test with A498 renal, 13.8 µM; with HCC-2998 colon, more than 25 µM; in the test on TK-10 renal it was 11.6 µM. Further, the TGI was 7.95 µM in the test with MALME-3M melanoma, 8.19 µM with OVCAR-4 ovarian, 5.29 µM in the test on HCT-116 colon and more than 21.6 µM in the test on CAKI-1 renal.
